The values that follow come from patent publication US20260109727A1, “RNA CONSTRUCTS AND USES THEREOF” (BioNTech SE, priority 2022, published 2026).

Data set [1] relates to human PBMCs. As to the kind of experiment: Cytokine/chemokine secretion in human PBMCs (MSD V-PLEX). Type of data set: cell-based. The protocol:
Human buffy coats from healthy individuals were obtained from the Faculty of Medicine of Johannes Gutenberg University, Mainz and used to isolate peripheral blood mononuclear cells (PBMCs) on a Ficoll-Paque™ PLUS (Cytiva, Marlborough, MA, USA) density gradient. In preparation for mRNA transfection, cryopreserved PBMCs were thawed and seeded into 96-well plates at a density of 5×10^5 cells per well in 190 μL RPMI medium supplemented with 1% non-essential amino acids (NEAA), 1% sodium pyruvate and 10% Fetal Bovine Serum (Merck, Germany). Cells were maintained at 37° C. with 5% CO2 until transfection with 0.5, 1.5, 5.0 and 15 μg/ml lipoplex-formulated EPO mRNA (LPX-RNA), as described in Kranz, L. M., et al. (2016) Nature, 534, 396-401. The complexed RNA (10 μl per well) was added in triplicates and supernatants were collected at 24 h after transfection to perform single cell cytotoxicity assay and to measure the cytokine/chemokine profile. To determine the cell viability and the production of selected cytokines/chemokines, supernatants from human PBMCs transfected with LPX-RNA were subjected to XTT cytotoxicity test using Cell Proliferation Kit II (Sigma-Aldrich) and cytokine/chemokine profile analysis using the Meso Scale Discovery V-PLEX Custom Human Biomarkers Proinflammatory and Chemokine Panel (Meso Scale Diagnostics—MSD, Rockville, MD, USA) according to the manufacturer's instructions, respectively. In regards of cytokine/chemokine profile analysis, a sample dilution of 1:5 (supernatant:MSD diluent) was used in each experiment. The levels of IL-6 (Interleukin 6), TNF-α (Tumor necrosis factor alpha), IL-1 (Interleukin 1 beta), IFN-γ (Interferon gamma), MCP-1 (Monocyte Chemoattractant Protein-1), […] (Macrophage inflammatory protein 1 beta) and IL-10 (Interleukin 10) were quantified 24 h after the mRNA transfection. […] This low immunogenicity can be directly attributed to the nucleoside modifications incorporated into the mRNA. To illustrate this, cells treated with lipid-complexed U-containing mRNA capped with compound I′-1, CC114 and CC413 induced much higher proinflammatory cytokine/chemokine responses even at their lowest dose (0.5 μg/ml) when compared to m1Ψ-modified mRNA (FIG. 6).
To test the effect of the cap types and mRNA 5′end on immunogenicity in human peripheral blood monocyte cells (PBMCs) we compared changes in levels of cytokines and chemokines after application of Lipoplex (LPX)-formulated EPO mRNAs. First, we compared the impact of m1Ψ-mRNA capped with I′-6 containing a UAGU 5′end vs. CC413 (AGAAU 5′end) (FIG. 12). […] Second, we compared capped EPO uRNA with I′-6 or I′-1 (FIG. 14). In this case both mRNAs had the same TAGT 5′end. […] Thus, benefit of I′-6 in decreasing the immunogenicity and thus increasing safety was found when I′-6 was used.

Data set [2] relates to human PBMCs. As to the kind of experiment: XTT cytotoxicity test of PBMCs transfected with LPX-formulated EPO mRNA. It counts as cell-based. Particulars: 24 h, up to 1 μg/well mRNA. The protocol: Human buffy coats from healthy individuals were obtained from the Faculty of Medicine of Johannes Gutenberg University, Mainz and used to isolate peripheral blood mononuclear cells (PBMCs) on a Ficoll-Paque™ PLUS (Cytiva, Marlborough, MA, USA) density gradient. In preparation for mRNA transfection, cryopreserved PBMCs were thawed and seeded into 96-well plates at a density of 5×10^5 cells per well in 190 μL RPMI medium supplemented with 1% non-essential amino acids (NEAA), 1% sodium pyruvate and 10% Fetal Bovine Serum (Merck, Germany). Cells were maintained at 37° C. with 5% CO2 until transfection with 0.5, 1.5, 5.0 and 15 μg/ml lipoplex-formulated EPO mRNA (LPX-RNA), as described in Kranz, L. M., et al. (2016) Nature, 534, 396-401. The complexed RNA (10 μl per well) was added in triplicates and supernatants were collected at 24 h after transfection to perform single cell cytotoxicity assay and to measure the cytokine/chemokine profile. […] The levels of IL-6 (Interleukin 6), TNF-α (Tumor necrosis factor alpha), IL-1 (Interleukin 1 beta), IFN-γ (Interferon gamma), MCP-1 (Monocyte Chemoattractant Protein-1), […] (Macrophage inflammatory protein 1 beta) and IL-10 (Interleukin 10) were quantified 24 h after the mRNA transfection. […]
(Tetrazolium dyes change colour on reduction, which living cells bring about.)

As to `COC1C(OP(=O)(O)OC[C@H]2O[C@@H](c3cn(C)c(=O)[nH]c3=O)C(O)C2O)[C@@H](COP(=O)(O)OP(=O)([O-])OP(=O)(O)OC[C@H]2O[C@@H](n3c[n+](C)c4c(O)nc(N)nc43)C(O)C2OC)O[C@H]1n1cnc2c(N)ncnc21` (some centres unmarked) [I′-6, m^7G(^3′-OMe)pppA(2′-OMe)pm^1Ψ], the “cytokines (IL-6, TNF-α, IL-1β, IFN-γ), compared with I′-1” value in data set [1] (EPO uRNA, same TAGT 5′end, 24 h after application) is recorded as “significantly lower”. In addition, in data set [1] (LPX-formulated EPO mRNA, across the concentrations tested), the “increase in levels of proinflammatory cytokines and chemokines, compared with CC413” value is given as “less of an increase”. Also, the “MIP-1β, compared with CC413” value in data set [1] (LPX-m1Ψ-mRNA, 0.333 and 1 μg/well (1.7 and 5 μg/ml)) was “decrease”. Moreover, the “cytokines (IL-6, TNF-α, IL-1, IFN-γ), compared with CC413” value in data set [1] (LPX-m1Ψ-mRNA, 1 and 3 μg/well (5 and 15 μg/ml)) is given as “significant decrease”. The “toxic effect on cell viability (XTT)” value in data set [2] is “no toxic effect”.
